Source: PMC11428215, “Unveiling a New Antimicrobial Peptide with Efficacy against P. aeruginosa and K. pneumoniae from Mangrove-Derived Paenibacillus thiaminolyticus NNS5-6 and Genomic Analysis” (Antibiotics, 2024)

Legend:
[1] = tested on: P. aeruginosa TISTR 357; assay type: cell-based, Pseudomonas aeruginosa; conditions: 37 °C 24 h, triplicate
Experimental: (§1) The MIC and MBC of the purified AMP were determined using the broth microdilution method following the guidance provided by the Clinical and Laboratory Standards Institute (CLSI). P. aeruginosa TISTR 357 and K. pneumoniae TISTR 1383 were cultured on MH agar and incubated at 37 °C for 18 h. A single colony of the tested bacteria was suspended in 0.85% NaCl until the suspension turbidity reached an OD of 0.1 at 625 nm. The cells were then diluted to 5 × 10^6 CFU/mL using cation-adjusted Mueller Hinton broth (CAMHB). The diluted cell suspension of 10 µL was transferred into each well of a 96-well plate with a final volume of 100 µL per well. The AMP was added to achieve final concentrations ranging from 0.125 to 64 µg/mL. Colistin was used as the positive control, while antibiotic-free samples were used as negative controls. The 96-well plate was incubated at 37 °C for 24 h. Each strain was tested in triplicate. […] Subsequently, 100 µL of each dilution was spread on MH agar and then incubated at 37 °C for 24 h. The MBC was identified as the lowest concentration at which no bacterial colony growth was observed on the agar plate.

[2] = tested on: K. pneumoniae TISTR 1383; assay type: cell-based, Klebsiella pneumoniae; conditions: 37 °C 24 h, triplicate
Experimental: as §1

[3] = tested on: P. aeruginosa TISTR 357; experiment: Agar well diffusion, antibacterial spectrum; assay type: cell-based, Pseudomonas aeruginosa
Experimental: (§2) The active isolates from the agar overlay assay were transferred into broth media identical to that used during the initial isolation. The cultures were incubated at 30 °C with shaking at 150 rpm for 18 h. The optical density of the starter culture was adjusted to a turbidity of 0.1 OD at 625 nm using a 0.85% sterile NaCl solution before transferring 1 mL of the culture into 49 mL of fresh broth. The inoculum was then incubated at 30 °C with shaking at 150 rpm for 24 h. The CFS was obtained by centrifugation at 10,000× g at 4 °C for 15 min and filtered through a 0.2 µm sterile cellulose acetate syringe filter. The antibacterial activity of the CFS derived from each isolate was investigated using P. aeruginosa TISTR 357, K. pneumoniae TISTR 1383, E. coli TISTR 887, S. typhimurium TISTR 1469, V. parahaemolyticus TISTR 1596, and S. aureus TISTR 517 from the Thailand Institute of Scientific and Technological Research (TISTR), Thailand. The antibiotic-resistant strain, MRSA strain 2468, was kindly provided by the medical technology laboratory at the School of the Allied Health Sciences, Walailak University, Thailand. The microbial indicators were incubated at 37 °C for 18 h on MH agar. […] The experiment was conducted in triplicate, and the mean ± SD of the diameters of the inhibition zones was measured.

[4] = tested on: S. typhimurium TISTR 1469; experiment: Agar well diffusion, antibacterial spectrum; assay type: cell-based, Salmonella typhimurium
Experimental: as §2

[5] = tested on: E. coli TISTR 887; experiment: Agar well diffusion, antibacterial spectrum; assay type: cell-based, Escherichia coli
Experimental: as §2

[6] = tested on: S. aureus TISTR 517; experiment: Agar well diffusion, antibacterial spectrum; assay type: cell-based, Staphylococcus aureus
Experimental: as §2

[7] = tested on: MRSA Strain 2468; experiment: Agar well diffusion, antibacterial spectrum; assay type: cell-based, methicillin-resistant Staphylococcus aureus
Experimental: as §2

[8] = tested on: V. parahaemolyticus TISTR 1596; experiment: Agar well diffusion, antibacterial spectrum; assay type: cell-based, Vibrio parahaemolyticus
Experimental: as §2

[9] = tested on: K. pneumoniae TISTR 1383; experiment: Agar well diffusion, antibacterial spectrum; assay type: cell-based, Klebsiella pneumoniae
Experimental: as §2

[10] = cited from earlier work
From the text: The AMP of Paenibacillus thiaminolyticus NNS5-6 was sensitive to proteinase K and trypsin, confirming its proteinaceous nature. […] The AMP was also stable across a wide pH range (pH 4.5–10) compared with extremely acidic and alkaline environments. This information could help inform temperature conditions and buffer choices during purification and guide the formulation development of drug delivery systems for suitable administration routes.

[11] = tested on: P. aeruginosa TISTR 357; experiment: Compatibility with surfactants, residual antibacterial activity; assay type: physicochemical, Pseudomonas aeruginosa; conditions: no AMP (same value in 1 h, 6 h and 12 h), agar well diffusion, % of non-treated AMP, mean ± SD, n = 3
Experimental: The AMP was dissolved in sterile purified water and adjusted a final concentration to 16 µg/mL. The sensitivity of the AMP to temperatures of 37, 40, 50, 60, 80, and 100 °C, as well as autoclaving at 121 °C for 15 and 30 min was evaluated. The sensitivity of the AMP to proteolytic enzymes with different digesting characteristics was studied by incubating with a concentration of 1 mg/mL of proteinase K, trypsin, and α-chymotrypsin (Sigma-Aldrich, Warren, MI, USA). The compatibility of the AMP with surfactants was evaluated by exposing the AMP to 1% SDS or 1% Triton X-100 (AppliChem GmbH, Darmstadt, Germany). The degradation of the AMP under various pH conditions, including physiological and extended alkaline conditions, was evaluated by adjusting the pH of the solution to 1.2, 4.5, 6.8, 7.4, 8.0, 10.0, 12.0, and 14.0. After incubation, the pH of the AMP solution was neutralized to the original pH before being assessed for antibacterial activity. The antibacterial assay against P. aeruginosa TISTR 357 was conducted using the agar well diffusion assay in triplicate. The stability profiles are presented as the percentage of the residual activity compared with the non-treatment conditions (mean ± SD), and statistical significance was determined by the Student’s t-test at a p-value < 0.05.

[12] = plated on MH agar after microdilution
[13] = agar well diffusion on MH agar, 9 mm wells, 37 °C 18 h, CFS 100 µL, vancomycin 30 µg, colistin 1 µg, mean ± SD, n = 3

In the case of Colistin, the MIC ([1]; broth microdilution, CAMHB) is reported as 1 µg/mL, the MBC [1, 12] is reported as 1 µg/mL and the MIC ([2]; broth microdilution, CAMHB) is reported as 1 µg/mL. For the same molecule, the MBC [2, 12] was 1 µg/mL, the “Zone of Inhibition” value [3, 13] was 18.05 ± 0.67 mm and the “Zone of Inhibition” value [4, 13] was 20.4 ± 0.89 mm. The “Zone of Inhibition” value [5, 13] was 18.13 ± 0.88 mm, the “Zone of Inhibition” value [6, 13] was 0.00 ± 0.00 mm and the “Zone of Inhibition” value [7, 13] was 0.00 ± 0.00 mm. The “Zone of Inhibition” value [8, 13] was 18.8 ± 0.76 mm and the “Zone of Inhibition” value [9, 13] was 18.81 ± 0.39 mm.
For fusaricidin A, the “sensitivity to protease treatment” value [10] is given as “insensitive to protease treatment” and the “pH range over which antimicrobial activity is retained” value ([10]; fusaricidin A produced by Paenibacillus bovis sp. nov BD3526) is given as 2.0 to 9.0.
For `CN[C@H](CC(C)C)C(=O)N[C@H]1C(=O)N[C@@H](CC(N)=O)C(=O)N[C@H]2C(=O)N[C@H]3C(=O)N[C@H](C(=O)N[C@H](C(=O)O)c4cc(O)cc(O)c4-c4cc3ccc4O)[C@H](O)c3ccc(c(Cl)c3)Oc3cc2cc(c3O[C@@H]2O[C@H](CO)[C@@H](O)[C@H](O)[C@H]2O[C@H]2C[C@](C)(N)[C@H](O)[C@H](C)O2)Oc2ccc(cc2Cl)[C@H]1O` [Vancomycin], the zone of inhibition at 30 µg/disc ([3]; Pseudomonas aeruginosa, TISTR357, 18 h) was 0 mm, the zone of inhibition at 30 µg/disc ([4]; Salmonella enterica, 18 h) was 0 mm and the zone of inhibition at 30 µg/disc ([5]; Escherichia coli, TISTR887, 18 h) was 0 mm. It also gave a zone of inhibition at 30 µg/disc ([6]; Staphylococcus aureus, TISTR517, 18 h) of 21.6 ± 0.51 mm, a zone of inhibition at 30 µg/disc ([7]; Staphylococcus aureus, MRSA, 18 h) of 21.8 ± 0.78 mm and a zone of inhibition at 30 µg/disc ([8]; Vibrio parahaemolyticus, TISTR1596, 18 h) of 0 mm. The zone of inhibition at 30 µg/disc ([9]; Klebsiella pneumoniae, TISTR1383, 18 h) was 0 mm.
In the case of `CCCCCCCCCCCCOS(=O)(=O)[O-].[Na+]` [SDS, reference compound], the “antibacterial activity of surfactant alone against P. aeruginosa TISTR 357, given as % residual activity” value ([11]; 1% SDS alone) is reported as 121.76 ± 2.42 %.
In the case of Triton X-100 [reference compound], the “antibacterial activity of surfactant alone against P. aeruginosa TISTR 357, given as % residual activity” value ([11]; 1% Triton X-100 alone) is reported as 126.83 ± 2.72 %.
